The text below walks through data of publication PMC3923053, “Effects of Various Phytochemicals on Indoleamine 2,3-Dioxygenase 1 Activity: Galanal Is a Novel, Competitive Inhibitor of the Enzyme” (PLoS ONE, 2014).

The target of this assay is T1, Indoleamine 2,3-dioxygenase 1 (IDO1) (Homo sapiens, UniProt P14902).
T1 construct: recombinant human IDO1, N-His-tag, expressed in E. coli
The experiment in a line: methylene blue/ascorbate assay of purified recombinant IDO1, HPLC; Lineweaver-Burk kinetics. The class given is biochemical.

T1 sequence (P14902 whole entry): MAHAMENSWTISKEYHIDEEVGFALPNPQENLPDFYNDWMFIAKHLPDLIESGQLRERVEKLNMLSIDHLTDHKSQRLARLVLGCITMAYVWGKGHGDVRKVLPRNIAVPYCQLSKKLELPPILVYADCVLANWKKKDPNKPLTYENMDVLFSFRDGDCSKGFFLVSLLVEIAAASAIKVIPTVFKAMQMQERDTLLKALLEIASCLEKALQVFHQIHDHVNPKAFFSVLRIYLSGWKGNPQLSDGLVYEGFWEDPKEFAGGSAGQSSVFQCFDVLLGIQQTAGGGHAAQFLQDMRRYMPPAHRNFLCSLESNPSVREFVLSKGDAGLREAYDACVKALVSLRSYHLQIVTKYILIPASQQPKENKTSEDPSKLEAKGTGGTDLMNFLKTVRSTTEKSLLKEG

For the substance galanal, the IC50 came to 7.7 µM.
